How the values were obtained:
[1] = test system: Eimeria acervulina, E. tenella; assay: Anticoccidiosis assay (oocyst production in infected chickens on medicated diet); assay type: in vivo, White Leghorn chickens; design: key: at least 80% reduction in oocyst production are considered active; those with 50-79% are considered partially active; those with <50% are considered inactive; conditions: 100 ppm in diet; chickens infected with E. acervulina or E. tenella
Procedure: (§1) Compound of the present invention and 2-(4-fluorophenyl)-5-(N-methylpiperidin-4-yl)-3-(4-pyridyl)pyrrole were evaluated in anticoccidiosis assay and toxicology studies. In these studies, medicated diets were prepared by dissolving the proper quantity of the test compound in dimethylsulfoxide or acetone, mixing the resultant solution into a few grams of the basal diet, and then placing the mixture under a fume hood for dehydration. The dry mixture is made into a uniform premix with an electric grinder, and then blended with the desired quantity of basal diet for the final formulation in a commercial bowl mixer.
One-day-old White Leghorn chickens are obtained from a commercial hatchery and acclimated in a holding room. At three days of age the test animals are selected by weight, wingbanded, and randomly placed on medicated or control diets for the duration of the experiment. One or two replicates of two birds are utilized per treatment. Following 24 h premedication, in each replicate one bird is infected with Eimeria acervulina, the other bird is infected with E. tenella. Both strains of Eimeria are sensitive to all anticoccidial products, and have been maintained in laboratory conditions for over 25 years. […] The measured parameters are weight gain, feed consumption and oocyst production. E. tenella lesion scores are also recorded for background information. […]

[2] = Toxicity Evaluation (38-day medicated diet, liver necrosis and urate crystal deposition); assay type: in vivo, male broiler chickens; conditions: 125 ppm in diet; for chickens with urate crystal deposition in the kidneys: affected/examined
Procedure: as §1
Day-old male broiler chickens are received on Day 0 of the trial, weighed, wingbanded, and placed on medicated or control diet in standard battery cages. Three treatments are used in the study: (A) medicated diet containing 125 ppm of 2-(4-fluorophenyl)-5-(N-methylpiperidin-4-yl)-3-(4-pyridyl)pyrrole; (B) medicated diet containing 125 ppm of 2-(4-fluorophenyl)-5-(N-ethylpiperidin-4-yl)-3-(4-pyridyl)pyrrole; and (C) no medication. A total of 48 chickens are utilized per treatment. Of these, 12 birds (2 replicates of 6) are examined on D7, D14, D24 and D38 for liver necrosis and urate crystal deposition. Growth rates, feed efficiency and plasma levels are determined for background information. The trial is terminated on D38.

[3] = Acute Toxicity Evaluation (intraperitoneal, twice a day for three days); assay type: in vivo; conditions: 100 mg/kg/day intraperitoneally, necropsy on day 4, two chickens per group
Procedure: For acute toxicity evaluation, chickens are dosed intraperitoneally twice a day at desired dose for three days. On day 4 birds are necropsied and examined for gross lesions and weight suppression. Two chickens are used in each treatment group.

Compound	anticoccidial activity (reduction in oocyst production) [1]	chickens with urate crystal deposition in the kidneys ([2]; examined on D14)	chickens with urate crystal deposition in the kidneys ([2]; examined on D38)	liver necrosis / gross liver lesions at necropsy [3]	chickens showing liver necrosis or urate crystal deposition ([2]; 12 birds examined on each of D7, D14, D24 and D38)
CN1CCC(c2cc(-c3ccncc3)c(-c3ccc(F)cc3)[nH]2)CC1 [2-(4-fluorophenyl)-5-(N-methylpiperidin-4-yl)-3-(4-pyridyl)pyrrole]	active	3/12	4/12	demonstrated gross liver lesions	–
CCN1CCC(c2cc(-c3ccncc3)c(-c3ccc(F)cc3)[nH]2)CC1 [2-(4-fluorophenyl)-5-(N-ethylpiperidin-4-yl)-3-(4-pyridyl)pyrrole]	active	–	–	none	None

— patent publication US6384052B1, “Anticoccidial compounds” (Merck & Co., Inc., priority 1999, dated 2002)
